The record followed here is the supplement of paper PMC10307832.

Common to all, as to assay: relative viability (nuclei count vs DMSO), 5 days (fraction); higher = more cells survive
Compound in the experiment “Axitinib + Olaparib”: CNC(=O)c1ccccc1Sc1ccc2c(/C=C/c3ccccn3)n[nH]c2c1 [Axitinib] + O=C(c1cc(Cc2n[nH]c(=O)c3ccccc23)ccc1F)N1CCN(C(=O)C2CC2)CC1 [Olaparib] (partner 8 µM)
In a few lines:
(§1)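 Each reported value is a median over duplicate plates. It expresses relative viability: treated-well nuclei count divided by vehicle-well nuclei count. Lung cancer cell lines in 1536-well plates were dosed by pin tool a day after seeding, alone with one drug or with a fixed anchor-drug dose plus five library-drug doses (not always all listed) in √10 steps, and nuclei were counted after 5 days.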

Compound in the experiment “Axitinib + Phenformin”: CNC(=O)c1ccccc1Sc1ccc2c(/C=C/c3ccccn3)n[nH]c2c1 [Axitinib] + N=C(N)NC(=N)NCCc1ccccc1 [Phenformin] (partner 250 µM)
In a few lines: as §1

Compound in the experiment “Axitinib + Bortezomib”: CNC(=O)c1ccccc1Sc1ccc2c(/C=C/c3ccccn3)n[nH]c2c1 [Axitinib] + CC(C)C[C@H](NC(=O)[C@H](Cc1ccccc1)NC(=O)c1cnccn1)B(O)O [Bortezomib] (partner 0.002 µM)
In a few lines: as §1

Compound in experiment [1]: CC1=CC=C(C=C1)C(=O)CN2C3=C(CCCC3)SC2=N [Pifithrin_alpha] + Nc1ncn([C@H]2C[C@H](O)[C@@H](CO)O2)c(=O)n1 [Decitabine] (partner 2 µM)
In a few lines:
as §1

NCI-H650: the relative viability in the experiment with Axitinib + Olaparib (first compound 0.005 µM) stood at 0.403; with Axitinib + Olaparib (first compound 0.01581 µM), 0.389; with Axitinib + Olaparib (first compound 0.05 µM), 0.394; with Axitinib + Olaparib (first compound 0.1581 µM) it was 0.406; in the experiment with Axitinib + Olaparib (first compound 0.5 µM), 0.444; with Axitinib + Phenformin (first compound 0.005 µM), 0.462. The relative viability worked out at 0.434 in the experiment with Axitinib + Phenformin (first compound 0.01581 µM); 0.483 with Axitinib + Phenformin (first compound 0.05 µM); 0.424 with Axitinib + Phenformin (first compound 0.1581 µM); 0.471 with Axitinib + Phenformin (first compound 0.5 µM); 0.739 with Axitinib + Bortezomib (first compound 0.005 µM); 0.944 with Axitinib + Bortezomib (first compound 0.01581 µM). The relative viability with Axitinib + Bortezomib (first compound 0.05 µM) came to 0.683; in the experiment with Axitinib + Bortezomib (first compound 0.1581 µM), 0.7; with Axitinib + Bortezomib (first compound 0.5 µM) it was 0.816; in experiment [1] (first compound 3.162 µM) it was 0.323; in experiment [1] (first compound 10 µM), 0.335; in experiment [1] (first compound 31.62 µM), 0.235. Further, the relative viability in experiment [1] (first compound 100 µM) came out at 0.275.
